Data set [1] has as its system caspase-8. As to the kind of experiment: Caspase-8 mRNA in frontal cortex after ethanol intoxication. The format is in vivo, Wistar rats. The following applies: OEA pre-treatment. Here is the method:
The animals were treated with intragastric (i.g.) ethanol 3 times a day using an i.g. cannula (16G needle, Fisher Scientific, Waltham, Mass., USA), following a protocol based on a slightly modified standard 4-day alcohol intoxication pattern (Bernier et al., 2002a, b) (FIG. 1A). The ethanol doses were administered every 8 h for a total time of 4 days. The rats treated with ethanol received an initial loading dose of 5 g/kg of ethanol in a 30% solution (w/v) and then a maximum maintenance dose of 3 g/kg, which were determined based on blood ethanol levels (BEL). This repeated standard alcohol intoxication paradigm kept BEL intoxication relatively constant in a range of sedation/ataxia (190 to 430 mg/dl, Table 3), according to the 6-point alcohol intoxication behavior scale (Majchrowicz, 1975). The mean dose of ethanol/rat/day (days 1-4) was 7.06 g/kg, similar to other studies (Obernier et al., 2002a, b). OEA (5 mg/kg, i.p., except initial dose of 10 mg/kg i.p.; synthesized as described in Giuffrida et al., 2000) was dissolved in the vehicle (5% Tween-80 in saline solution) and injected 10 minutes before each of the administrations of ethanol by an intragastric gavage. […] The quantitative changes in mRNA levels were estimated by means of RT-PCR, carried out in the presence of the SYBR green primer using a 20-L reaction in a Rotor-Gene (Corbett Research®, Mortlake, NSW, Australia). […]

Data set [2] in a line: Blood ethanol levels (BEL) during 4-day alcohol intoxication protocol. As to conditions: before and after force-feeding; two-way repeated measure ANOVA n.s. The format is in vivo, Wistar rats. Here is the method:
The animals were treated with intragastric (i.g.) ethanol 3 times a day using an i.g. cannula (16G needle, Fisher Scientific, Waltham, Mass., USA), following a protocol based on a slightly modified standard 4-day alcohol intoxication pattern (Bernier et al., 2002a, b) (FIG. 1A). The ethanol doses were administered every 8 h for a total time of 4 days. The rats treated with ethanol received an initial loading dose of 5 g/kg of ethanol in a 30% solution (w/v) and then a maximum maintenance dose of 3 g/kg, which were determined based on blood ethanol levels (BEL). This repeated standard alcohol intoxication paradigm kept BEL intoxication relatively constant in a range of sedation/ataxia (190 to 430 mg/dl, Table 3), according to the 6-point alcohol intoxication behavior scale (Majchrowicz, 1975). The mean dose of ethanol/rat/day (days 1-4) was 7.06 g/kg, similar to other studies (Obernier et al., 2002a, b). To confirm intoxication, BEL was determined in blood samples taken from the tail 120 minutes before and after the second i.g. administration of ethanol of the day, which was done at 3 pm by means of the use of electrochemical detection of an enzymatic reaction with an AM1 alcohol analyzer (Analox Instruments, London, United Kingdom). […]

Data on one molecule can be found in US20190365675A1, “COMPOSITIONS FOR THE PREVENTION AND/OR TREATMENT OF ALCOHOL USE DISORDERS” (SERVICIO ANDALUZ DE SALUD, priority 2016, published 2019).

Regarding `CCCCCCCC/C=C\CCCCCCCC(=O)NCCO` [OEA, oleoylethanolamide], the “Ethanol-induced overexpression of caspase-8 mRNA” value in data set [1] is listed as “reversed”. The “Effect of OEA pre-treatment on BEL reached during days 2-4” value in data set [2] is “did not change”.
